Among the data in US8163771B2, “11 β-HSD1 modulators” (Exelixis, Inc., priority 2008, dated 2012) are IC50 values, retold here.

Some results are limits rather than exact numbers.

T1 sequence (P28845 whole entry): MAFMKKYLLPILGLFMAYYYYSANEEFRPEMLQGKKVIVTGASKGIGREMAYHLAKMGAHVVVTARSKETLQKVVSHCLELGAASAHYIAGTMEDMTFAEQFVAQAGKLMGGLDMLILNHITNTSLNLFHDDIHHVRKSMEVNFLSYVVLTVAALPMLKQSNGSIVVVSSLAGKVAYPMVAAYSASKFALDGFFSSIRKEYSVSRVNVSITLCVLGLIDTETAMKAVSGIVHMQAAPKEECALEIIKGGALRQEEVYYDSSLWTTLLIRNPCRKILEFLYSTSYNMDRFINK

The assay addresses T1, recombinant human 11 β-HSD1 (Homo sapiens, UniProt P28845).
T1 construct: made in house; host or cells: E. coli
Briefly: 11 β-HSD1 SPA Assay (Scintillation Proximity Assay). It is filed as biochemical. On the procedure: (§1) Inhibition of 11 βHSD1 by test compounds was assessed in vitro by a Scintillation Proximity Assay (SPA). The assay was carried out in a 384-well assay plate in a total well volume of 26 μl and contained a mixture of tritiated cortisone substrate (40 nM), NADPH cofactor (1 mM), inhibitor in serial dilutions ([…] to 10 μM), and purified E. coli-expressed recombinant human 11 βHSD1 (30-100 nM) in assay buffer (50 mM HEPES, 100 mM KCl, 5 mM NaCl, and 2 mM MgCl2, pH7.4). Following mixing, the plate was incubated for 2 hours at room temperature. Reactions were stopped by addition of 30 μl of protein A YSi SPA beads (10 mg/ml) that had been pre-incubated with glycyrrhetinic acid (1 mM) and a monoclonal cortisol antibody (3 μg/ml). The plate was then incubated overnight at room temperature prior to reading on a Microbeta counter. Percent inhibition of each compound was calculated based on the background and the maximal signals. Wells that contained substrate without compound or enzyme were used as the background signal, while the wells that contained substrate and enzyme without any compound were used as the maximal signal. The calculation of the IC50 values for the inhibitors was performed by Activity Base.
as §1, with “β-HSD1” for “βHSD1”
Background: Scintillation proximity formats need no separation of bound from free tracer.
Broadly, the IC50 is the concentration that inhibits the measured activity by half. On to “2-[(2,4-dichlorophenyl)oxy]-N-{8-[5-(1-hydroxy-1-methylethyl)pyridin-2-yl]-8-azabicyclo[3.2.1]oct-3-endo-yl}-2-methylpropanamide [Example 53]”, for which the IC50 is below 2000 nM.

Take `O=C(NC1CC1)c1ccc(N2[C@@H]3CC[C@H]2C[C@@H](NC(=O)C2(c4ccc(Cl)cc4)CC2)C3)nc1` [Example 1, 6-[3-endo-({[1-(4-chlorophenyl)cyclopropyl]carbonyl}amino)-8-azabicyclo[3.2.1]oct-8-yl]-N-cyclopropylpyridine-3-carboxamide]: the IC50 is below 200 nM.

For the compound `O=C(N[C@H]1C[C@H]2CC[C@@H](C1)N2c1ncccc1C(F)(F)F)C1(c2ccc(Cl)cc2)CC1` [Example 5], the IC50 is below 2000 nM.

For the compound `O=C(NC1CC1)c1ccc(N2C3CCC2CC(NC(=O)C2(c4ccc(Cl)cc4)CCCC2)C3)nc1` (stereo not shown) [Example 7, 6-[3-({[1-(4-chlorophenyl)cyclopentyl]carbonyl}amino)-8-azabicyclo[3.2.1]oct-8-yl]-N-cyclopropylpyridine-3-carboxamide], the IC50 was below 200 nM.

With `CC(C)NC(=O)c1ccc(N2[C@@H]3CC[C@H]2C[C@@H](NC(=O)C2(c4ccc(Cl)cc4)CC2)C3)nc1` [Example 12, 6-[3-endo-({[1-(4-chlorophenyl)cyclopropyl]carbonyl}amino)-8-azabicyclo[3.2.1]oct-8-yl]-N-(1-methylethyl)pyridine-3-carboxamide], the IC50 is below 200 nM.

With `CC(C)(Oc1ccc(Cl)cc1)C(=O)N[C@H]1C[C@H]2CC[C@@H](C1)N2c1ccc(C(=O)NC2CC2)cn1` [Example 13, 6-[3-endo-({2-[(4-chlorophenyl)oxy]-2-methylpropanoyl}amino)-8-azabicyclo[3.2.1]oct-8-yl]-N-cyclopropylpyridine-3-carboxamide], the IC50 is below 200 nM.

As for `CC(C)(Oc1cccc(Cl)c1)C(=O)N[C@H]1C[C@H]2CC[C@@H](C1)N2c1ccc(C(=O)NC2CC2)cn1` [Example 14, 6-[3-endo-({2-[(3-chlorophenyl)oxy]-2-methylpropanoyl}amino)-8-azabicyclo[3.2.1]oct-8-yl]-N-cyclopropylpyridine-3-carboxamide], the IC50 was below 200 nM.

As for `CC(C)(Oc1ccccc1)C(=O)N[C@H]1C[C@H]2CC[C@@H](C1)N2c1ccc(C(=O)NC2CC2)cn1` [Example 15, N-cyclopropyl-6-(3-endo-{[2-methyl-2-(phenyloxy)propanoyl]amino}-8-azabicyclo[3.2.1]oct-8-yl)pyridine-3-carboxamide], the IC50 is below 200 nM.

Consider `O=C(NC1CC1)c1ccc(N2[C@@H]3CC[C@H]2C[C@@H](NC(=O)C2(c4cccc(Cl)c4)CC2)C3)nc1` [Example 16, 6-[3-endo-({[1-(3-chlorophenyl)cyclopropyl]carbonyl}amino)-8-azabicyclo[3.2.1]oct-8-yl]-N-cyclopropylpyridine-3-carboxamide], for which the IC50 is below 200 nM.

Take `O=C(NC1CC1)c1ccc(N2[C@@H]3CC[C@H]2C[C@@H](NC(=O)C2(c4ccccc4Cl)CC2)C3)nc1` [Example 17, 6-[3-endo-({[1-(2-chlorophenyl)cyclopropyl]carbonyl}amino)-8-azabicyclo[3.2.1]oct-8-yl]-N-cyclopropylpyridine-3-carboxamide]: the IC50 was below 200 nM.

With `N#Cc1ccnc(N2[C@@H]3CC[C@H]2C[C@@H](NC(=O)C2(c4ccc(Cl)cc4)CC2)C3)c1` [Example 18, 1-(4-chlorophenyl)-N-[8-(4-cyanopyridin-2-yl)-8-azabicyclo[3.2.1]oct-3-endo-yl]cyclopropanecarboxamide], the IC50 is below 2000 nM.

Regarding `O=C(O)c1ccc(N2[C@@H]3CC[C@H]2C[C@@H](NC(=O)C2(c4ccc(Cl)cc4)CC2)C3)nc1` [Example 19, 6-[3-endo-({[1-(4-chlorophenyl)cyclopropyl]carbonyl}amino)-8-azabicyclo[3.2.1]oct-8-yl]pyridine-3-carboxylic acid], the IC50 is below 2000 nM.

For the compound `CC(C)(C(=O)N[C@H]1C[C@H]2CC[C@@H](C1)N2c1ccc(C(=O)NC2CC2)cn1)c1ccc(Cl)cc1` [Example 20, 6-(3-endo-{[2-(4-chlorophenyl)-2-methylpropanoyl]amino}-8-azabicyclo[3.2.1]oct-8-yl)-N-cyclopropyipyridine-3-carboxamide], the IC50 was below 200 nM.

With `CC(C)(C(=O)N[C@H]1C[C@H]2CC[C@@H](C1)N2c1ccc(C(=O)NC2CC2)cn1)c1ccccc1` [Example 21, N-cyclopropyl-6-{3-endo-[(2-methyl-2-phenylpropanoyl)amino]-8-azabicyclo[3.2.1]oct-8-yl}pyridine-3-carboxamide], the IC50 was below 200 nM.

As to `O=C(NCC(F)(F)F)c1ccc(N2[C@@H]3CC[C@H]2C[C@@H](NC(=O)C2(c4ccc(Cl)cc4)CC2)C3)nc1` [Example 22, 6-[3-endo-({[1-(4-chlorophenyl)cyclopropyl]carbonyl}amino)-8-azabicyclo[3.2.1]oct-8-yl]-N-(2,2,2-trifluoroethyl)pyridine-3-carboxamide], the half-maximal inhibitory concentration (IC50) is below 200 nM.

With `Cc1ccc(C2(C(=O)N[C@H]3C[C@H]4CC[C@@H](C3)N4c3ccc(C(=O)NC4CC4)cn3)CC2)cc1` [Example 23, N-cyclopropyl-6-[3-endo-({[1-(4-methylphenyl)cyclopropyl]carbonyl}amino)-8-azabicyclo[3.2.1]oct-8-yl]pyridine-3-carboxamide], the IC50 was below 200 nM.

With `CC(C)(Oc1ccccc1Cl)C(=O)N[C@H]1C[C@H]2CC[C@@H](C1)N2c1ccc(C(=O)NC2CC2)cn1` [Example 24, 6-[3-endo-({2-[(2-chlorophenyl)oxy]-2-methylpropanoyl}amino)-8-azabicyclo[3.2.1]oct-8-yl]-N-cyclopropylpyridine-3-carboxamide], the IC50 was below 200 nM.

Regarding `CC(C)(C(=O)N[C@H]1C[C@H]2CC[C@@H](C1)N2c1ccc(C(=O)NC2CC2)cn1)c1cccc(Cl)c1` [Example 25, 6-(3-endo-{[2-(3-chlorophenyl)-2-methylpropanoyl]amino}-8-azabicyclo[3.2.1]oct-8-yl)-N-cyclopropylpyridine-3-carboxamide], the IC50 was below 200 nM.

With `CC(C)(C(=O)N[C@H]1C[C@H]2CC[C@@H](C1)N2c1ccc(C(=O)NCC(F)(F)F)cn1)c1ccc(Cl)cc1` [Example 26, 6-(3-endo-{[2-(4-chlorophenyl)-2-methylpropanoyl]amino}-8-azabicyclo[3.2.1]oct-8-yl)-N-(2,2,2-trifluoroethyl)pyridine-3-carboxamide], the IC50 is below 200 nM.

As to `CC(C)(Oc1ccc(Cl)cc1)C(=O)N[C@H]1C[C@H]2CC[C@@H](C1)N2c1ccc(C(=O)NCC(F)(F)F)cn1` [Example 27, 6-[3-endo-({2-[(4-chlorophenyl)oxy]-2-methylpropanoyl}amino)-8-azabicyclo[3.2.1]oct-8-yl]-N-(2,2,2-trifluoroethyl)pyridine-3-carboxamide], the IC50 is below 200 nM.

For the compound `O=C(NC1CC1)c1ccc(N2[C@@H]3CC[C@H]2C[C@@H](NC(=O)C2(c4ccc(F)c(F)c4)CC2)C3)nc1` [Example 28, N-cyclopropyl-6-[3-endo-({[1-(3,4-difluorophenyl)cyclopropyl]carbonyl}amino)-8-azabicyclo[3.2.1]oct-8-yl]pyridine-3-carboxamide], the concentration for half-maximal inhibition (IC50) was below 200 nM.

For the compound `CC(C)(Oc1ccccc1Cl)C(=O)N[C@H]1C[C@H]2CC[C@@H](C1)N2c1ccc(C(=O)NCC(F)(F)F)cn1` [Example 29, 6-[3-endo-({2-[(2-chlorophenyl)oxy]-2-methylpropanoyl}amino)-8-azabicyclo[3.2.1]oct-8-yl]-N-(2,2,2-trifluoroethyl)pyridine-3-carboxamide], the IC50 was below 200 nM.

In the case of `CC(C)NC(=O)c1ccc(N2[C@@H]3CC[C@H]2C[C@@H](NC(=O)C(C)(C)Oc2ccc(Cl)cc2)C3)nc1` [Example 30, 6-[3-endo-({2-[(4-chlorophenyl)oxy]-2-methylpropanoyl}amino)-8-azabicyclo[3.2.1]oct-8-yl]-N-(1-methylethyl)pyridine 3-carboxamide], the IC50 was below 200 nM.

As to `CC(C)(Oc1ccc(Cl)cc1Cl)C(=O)N[C@H]1C[C@H]2CC[C@@H](C1)N2c1ccc(C(=O)NC2CC2)cn1` [Example 31, N-cyclopropyl-6-[3-endo-({2-[(2,4-dichlorophenyl)oxy]-2-methylpropanoyl}amino)-8-azabicyclo[3.2.1]oct-8-yl]pyridine-3-carboxamide], the IC50 was below 200 nM.

Turning to `CC(C)(Oc1ccc(Cl)cc1)C(=O)N[C@H]1C[C@H]2CC[C@@H](C1)N2c1ccc(C#N)cn1` [Example 32, 2-[(4-chlorophenyl)oxy]-N-[8-(5-cyanopyridin-2-yl)-8-azabicyclo[3.2.1]oct-3-endo-yl]-2-methylpropanamide], the IC50 is below 200 nM.
